Like-named read-outs stand apart in the source and are kept apart here. No end group written: not given here.
Assays:
[1] = test system: L. seeligeri; experiment: Cell-binding assay by flow cytometry; design: species or system Listeria seeligeri
Protocol: (§1) The binding affinity and avidity of pediocin to various Gram-positive and Gram-negative bacteria were studied using flow cytometry. Late log-phase cells were washed in the sodium phosphate buffer (5 mM, pH 6.0) and resuspended at an OD600 of 10^–3 in sodium-acetate buffer (25 mM, pH 4.0), sodium phosphate buffer (5 mM, pH 6.0) or sodium phosphate buffer (5mM, pH 7.4) containing 1 % BSA (bovine serum albumin) and 100 mM NaCl. Cells were incubated with varying concentrations of the conjugated peptide at 4 °C for 30 min. The unbound peptide was removed by centrifugation, and the pellet was resuspended in their respective binding containing 1 % BSA. Flow cytometry was performed on an Attune NxT flow cytometer (Life Technologies/ThermoFisher Scientific, Carlsbad, CA). Data (≥10^4 events were recorded) was recorded using a […] (488 nm) voltage of 360 V, gating was performed on SSC-A versus SSC-H plot to reduce false events.

[2] = test system: L. seeligeri; type: cell-based, Listeria seeligeri; settings: for antimicrobial activity (in words): kill curve / growth inhibition, Figures S7 and S9
Protocol: To determine the potency of the purified pediocin PA-1, we generated kill-curves against a range of target bacteria (Figure 1B). The concentration range tested was 3 pM to 3 μM following 10-fold serial dilutions. […] This is in approximate agreement with the published potency of pediocin PA-1 [28] . Though the molecular mass of pediocin PA-1 is expected to be 4.5 kDa, we observed the partially purified peptide to migrate with an apparent mass of ~12.5 kDa (Figure 1B). However, subsequent analysis by LC-MS yielded peaks of multiple m/z with the predominant peak at the expected molecular size of 4.6 kDa (Figure S4). The purified pediocin PA-1, separated on denaturing but non-reducing SDS-PAGE (since this bacteriocin contains two crucial disulfide bonds), was subjected to agar-overlay assay using L. seeligeri as indicator organism (Figure S5).
The antimicrobial spectrum of pediocin PA-1 was assayed using a kill curve. Cultures grown overnight were resuspended in fresh medium at an OD600 of 0.05. EC50 was determined by incubating cells with varying concentrations of pediocin in a 96-well plate, and growth was measured at 600 nm after 24 h.
Figure S7. Growth inhibition of L. seeligeri by modified and unmodified pediocin PA-1.

[3] = test system: B. subtilis; experiment: Cell-binding assay by flow cytometry; design: species or system Bacillus subtilis; settings: flow cytometry, Atto488 conjugate up to 2 μM, 4 °C 30 min, 1 % BSA, 100 mM NaCl; Hill fit; read-out: Apparent KD
Protocol: as §1

[4] = test system: L. coryniformis; experiment: Cell-binding assay by flow cytometry; design: species or system Lactobacillus coryniformis; settings: flow cytometry, Atto488 conjugate up to 2 μM
Protocol: as §1

Compound: 30-mer-FITC: FITC-conjugated extended 30-mer fragment (S15-K43) of pediocin PA-1 (SVDWGKATTCIINNGAMAWATGGHQGNHK; also: FITC-conjugated, site not given here; UniProt P29430 33-61, looked up, fragment)
- binding at the tested pHs (in words) ([1]; pH 4.0, 6.0 and 7.4, Figure S10): pH-dependent binding
- binding (in words) ([1]; pH 6.0, L. seeligeri or the other species tested): unable to bind to any species tested

Compound: CC[C@H](C)[C@@H]1NC(=O)[C@@H](NC(=O)[C@@H](NC(=O)[C@@H](NC(=O)[C@H](C)NC(=O)[C@H](CCCCN)NC(=O)CNC(=O)[C@H](Cc2c[nH]c3ccccc23)NC(=O)[C@H](CC(=O)O)NC(=O)[C@@H](NC(=O)[C@H](CO)NC(=O)[C@@H]2CSSC[C@H](NC(=O)[C@@H](NC(=O)[C@@H](NC(=O)CNC(=O)[C@H](CC(N)=O)NC(=O)CNC(=O)[C@H](Cc3ccc(O)cc3)NC(=O)[C@H](Cc3ccc(O)cc3)NC(=O)[C@@H](N)CCCCN)C(C)C)[C@@H](C)O)C(=O)NCC(=O)N[C@@H](CCCCN)C(=O)N[C@@H](Cc3c[nH]cn3)C(=O)N[C@@H](CO)C(=O)N2)C(C)C)[C@@H](C)O)[C@@H](C)O)CSSC[C@@H](C(N)=O)NC(=O)[C@H](CCCCN)NC(=O)[C@H](Cc2c[nH]cn2)NC(=O)[C@H](CC(N)=O)NC(=O)CNC(=O)[C@H](CCC(N)=O)NC(=O)[C@H](Cc2c[nH]cn2)NC(=O)CNC(=O)CNC(=O)[C@H]([C@@H](C)O)NC(=O)[C@H](C)NC(=O)[C@H](Cc2c[nH]c3ccccc23)NC(=O)[C@H](C)NC(=O)[C@H](CCSC)NC(=O)[C@H](C)NC(=O)CNC(=O)[C@H](CC(N)=O)NC(=O)[C@H](CC(N)=O)NC(=O)[C@H]([C@@H](C)CC)NC1=O [pediocin PA-1 from Biomatik, reference compound]
- antimicrobial activity (in words) [2]: very low activity

Compound: CC[C@H](C)[C@@H]1NC(=O)[C@@H](NC(=O)[C@@H](NC(=O)[C@@H](NC(=O)[C@H](C)NC(=O)[C@H](CCCCN)NC(=O)CNC(=O)[C@H](Cc2c[nH]c3ccccc23)NC(=O)[C@H](CC(=O)O)NC(=O)[C@@H](NC(=O)[C@H](CO)NC(=O)[C@@H]2CSSC[C@H](NC(=O)[C@@H](NC(=O)[C@@H](NC(=O)CNC(=O)[C@H](CC(N)=O)NC(=O)CNC(=O)[C@H](Cc3ccc(O)cc3)NC(=O)[C@H](Cc3ccc(O)cc3)NC(=O)[C@@H](N)CCCCN)C(C)C)[C@@H](C)O)C(=O)NCC(=O)N[C@@H](CCCCN)C(=O)N[C@@H](Cc3c[nH]cn3)C(=O)N[C@@H](CO)C(=O)N2)C(C)C)[C@@H](C)O)[C@@H](C)O)CSSC[C@@H](C(N)=O)NC(=O)[C@H](CCCCN)NC(=O)[C@H](Cc2c[nH]cn2)NC(=O)[C@H](CC(N)=O)NC(=O)CNC(=O)[C@H](CCC(N)=O)NC(=O)[C@H](Cc2c[nH]cn2)NC(=O)CNC(=O)CNC(=O)[C@H]([C@@H](C)O)NC(=O)[C@H](C)NC(=O)[C@H](Cc2c[nH]c3ccccc23)NC(=O)[C@H](C)NC(=O)[C@H](CCSC)NC(=O)[C@H](C)NC(=O)CNC(=O)[C@H](CC(N)=O)NC(=O)[C@H](CC(N)=O)NC(=O)[C@H]([C@@H](C)CC)NC1=O [synthetic pediocin PA-1, reference compound]
- EC50 ([2]; 24 h): ~0.04 µM

Compound: Ped-488: purified biosynthetic pediocin conjugated to Atto488 using EDC-NHS chemistry (KYYGNGVTCGKHSCSVDWGKATTCIINNGAMAWATGGHQGNHKC; disulfide (positions not given here); ends not checked; also: Atto488 conjugated via EDC-NHS, site not given here; UniProt P29430 19-62, looked up)
- Kd [3]: ~0.467 µM
- maximum median fluorescence [4]: 6300 MFI
- Kd ([4]; 4 °C 30 min, 1 % BSA, 100 mM NaCl, Hill fit, read-out: Apparent KD): ~0.046 µM
- reduction in potency relative to the unmodified peptide ([2]; Atto488 conjugate vs unmodified pediocin): 10 fold
- antimicrobial activity (in words) [2]: maintained its antimicrobial activity
- antimicrobial activity (in words) ([2]; listed as Full-length pediocin conjugated to Atto488): retained antimicrobial activity
- antimicrobial activity (in words) ([2]; listed as conjugate to Atto488): very low activity

Compound: synthetic pediocin-Atto488 conjugate: Atto488 conjugated to the synthetic pediocin using EDC-NHS coupling (KYYGNGVTCGKHSCSVDWGKATTCIINNGAMAWATGGHQGNHKC; disulfide (positions not given here); ends not checked; also: Atto488 conjugated via EDC-NHS, site not given here; UniProt P29430 19-62, looked up)
- antimicrobial activity (in words) [2]: inactive

Compound: synthetic pediocin-NBD conjugate: NBD (7-nitrobenz-2-oxa-1,3-diazole) conjugated to the synthetic pediocin using EDC-NHS coupling (KYYGNGVTCGKHSCSVDWGKATTCIINNGAMAWATGGHQGNHKC; disulfide (positions not given here); ends not checked; also: NBD conjugated via EDC-NHS, site not given here; UniProt P29430 19-62, looked up)
- antimicrobial activity (in words) [2]: inactive
- antimicrobial activity (in words) ([2]; listed as conjugate to NBD): very low activity

— publication doi:10.1101/2025.09.29.679234, “Engineered antimicrobial-derived peptides to manipulate mixed microbial systems” (bioRxiv, 2025)
